In patent publication US8372991B2, “Trisubstituted thiophenes that modulate intracellular calcium” (Calcimedica, Inc., priority 2008, dated 2013):

Experiments:
[1] = target: STIM1 and Orai1 in human embryonic kidney 293 cells (HEK293 cells) (Homo sapiens, UniProt Q96D31); conditions: HEK293 co-expressing STIM1 and Orai1; cited from earlier work
JR251 or RBL cells = assay: Store-operated calcium entry IC50 in either JR251 or RBL cells; type: cell-based
Protocol: (§1) The day prior to performing the assay Orai1/STIM1 stable cells were plated in 50 μL of complete medium at 90-95% confluence in a 384 well plate. Cells were grown at 37° C./6% CO2 overnight. On the day of the assay, 1.5 μM fluo-4-AM (Invitrogen) in complete medium was added to the cells, which were then incubated for 1 hour at RT. Cells were washed once in Ca^2+-free HBSS (Hank's buffered saline solution) and 35 μl of Ca^2+-free HBSS was added to each well. Test compounds were added to wells in a 10 μL Ca^2+-free HBSS solution, prepared at 4.5× the desired final concentration, and incubated for 30 minutes at RT. The initial baseline fluorescence signal was then measured with a FLIPR^384 (Molecular Devices) plate reader. Calcium entry was initiated by adding 5 μl of 10× CaCl2 (10 mM) in HBSS, and changes in cellular fluorescence were measured with the FLIPR^384 plate reader. In each well, the magnitude of the fluorescence signal as a result of calcium entry into the cell was determined by calculating the difference between the peak fluorescence signal measured after calcium addition and the initial baseline fluorescence signal (designated Peak-Basal). IC50 values were typically calculated as the concentration that inhibited 50% of the Peak-Basal signal (Table A).
(§2) The day prior to performing the assay, RBL-2H3 cells are plated in 50 μL of complete medium in a 384 well plate. Cells are grown at 37° C./6% CO2 overnight and grow to 50-60% confluence by the next day. On the assay day, 1.5 μM Fluo-4-AM dye (Invitrogen) in complete medium is added and incubated for 1 hour at RT. Cells are washed twice in Ca^2+-free HBSS buffer and 35 μL Ca^2+-free HBSS buffer is added to each well. 10 μL of a test compound prepared in a Ca^2+-free HBSS solution at 4.5× of the desired concentration is added to a well and incubated for 5 minutes at RT. 10 μL of thapsigargin prepared in a Ca^2+-free HBSS solution at 5.5× of the desired concentration (5.5 uM) is added to each well and incubated for an additional 25 minutes. The initial baseline fluorescence signal is measured with a FLIPR^384 (Molecular Devices) plate reader. 5 μL of 12× calcium in HBSS (12 mM) is added and changes in cellular fluorescence are measured with the FLIPR^384 plate reader. In each well, the change in the fluorescent signal as a function of time due to calcium entry into the cell is determined by calculating the difference between the fluorescent signal measured 7 seconds after calcium addition and the initial baseline fluorescence signal at time zero (t=0). This parameter is designated Upslope. The IC50 value is calculated as the concentration at which 50% of the Upslope is inhibited.

RBL-2H3 cells = assay: Fluorescence-based assay of store-operated calcium entry in RBL-2H3 cells; type: cell-based; conditions: Rattus norvegicus, thapsigargin, 50% inhibition of Upslope
Protocol: B. Fluorescence-Based Assay of Store-Operated Calcium Entry in RBL-2H3 Cells.
RBL-2H3 cells were obtained from ATCC and maintained in complete medium with 10% FBS at 37° C./6% CO2.
as §2

Jurkat cells = Jurkat cells and colon cancer cells; cited from earlier work
[2] = Fluorescence-based assay of store-operated calcium entry in Orai1/STIM1 stable cells (Table A JR251); type: cell-based; conditions: Homo sapiens, 50% inhibition of Peak-Basal fluorescence signal
Protocol: A. Fluorescence-Based Assay of Store-Operated Calcium Entry in Orai1/STIM1 Stable Cells.
Cells stably expressing recombinant human STIM1 and Orai1 were generated by transfecting a human Orai1 expression plasmid (pcDNA3.1-Orai1-cmyc) into HEK-293 cells stably overexpressing human STIM1 (Roos et al. 2005 JCB 169(3): 435-445). Colonies of cells stably expressing both STIM1 and Orai1 proteins were selected and then subcloned by limiting dilution. Cells were cultured at 37° C./6% CO2 in complete medium with 10% FBS and appropriate selection markers.
as §1

Sequence of STIM1 and Orai1 in human embryonic kidney 293 cells (HEK293 cells) (Q96D31 whole entry): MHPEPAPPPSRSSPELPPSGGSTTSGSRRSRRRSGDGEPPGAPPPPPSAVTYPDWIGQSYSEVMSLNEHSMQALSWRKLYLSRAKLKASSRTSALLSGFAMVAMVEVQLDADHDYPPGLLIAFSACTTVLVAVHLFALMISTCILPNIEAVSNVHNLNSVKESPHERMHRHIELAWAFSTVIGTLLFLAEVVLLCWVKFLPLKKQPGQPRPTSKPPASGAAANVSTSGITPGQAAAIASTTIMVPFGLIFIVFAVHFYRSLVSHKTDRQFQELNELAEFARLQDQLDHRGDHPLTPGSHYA

| IC50 (JR251 or RBL cells) | Structure (SMILES) | other results |
| --- | --- | --- |
| – | NCCOB(c1ccccc1)c1ccccc1 [2-aminoethoxydiphenylborate] | block of store-dependent Ca2+ entry [1]: completely blocked |
| < 10 µM | Cc1nnsc1C(=O)Nc1scc(-c2cnn(-c3ccc(Cl)cc3)c2)c1C(=O)O [4-(1-(4-chlorophenyl)-1H-pyrazol-4-yl)-2-(4-methyl-1,2,3-thiadiazole-5-carboxamido)thiophene-3-carboxylic acid] | – |
| < 10 µM | O=C(Nc1scc(-c2cnn(-c3ccc(Cl)cc3)c2)c1C(=O)O)c1cnccn1 [4-(1-(4-chlorophenyl)-1H-pyrazol-4-yl)-2-(pyrazine-2-carboxamido)thiophene-3-carboxylic acid] | – |
| < 10 µM | O=C(Nc1scc(-c2cnn(-c3ccc(Cl)cc3)c2)c1C(=O)O)c1ccnnc1 [4-(1-(4-chlorophenyl)-1H-pyrazol-4-yl)-2-(pyridazine-4-carboxamido)thiophene-3-carboxylic acid] | – |
| < 10 µM | O=C(Nc1scc(-c2cnn(-c3ccc(Cl)cc3)c2)c1C(=O)O)c1cncnc1 [4-(1-(4-chlorophenyl)-1H-pyrazol-4-yl)-2-(pyrimidine-5-carboxamido)thiophene-3-carboxylic acid] | – |
| < 10 µM | O=C(Nc1scc(-c2nc3ccccc3n2C(F)F)c1C(=O)O)c1cccc(F)c1 [4-(1-(difluoromethyl)-1H-benzo[d]imidazol-2-yl)-2-(3-fluorobenzamido)thiophene-3-carboxylic acid] | – |
| < 10 µM | Cc1nnsc1C(=O)Nc1scc(-c2c(C)nn(-c3ccccc3)c2C)c1C(=O)O [4-(3,5-dimethyl-1-phenyl-1H-pyrazol-4-yl)-2-(4-methyl-1,2,3-thiadiazole-5-carboxamido)thiophene-3-carboxylic acid] | – |
| < 10 µM | Cc1nc(N2CCCCC2)ncc1-c1csc(NC(=O)c2cnccn2)c1C(=O)O [4-(4-methyl-2-(piperidin-1-yl)pyrimidin-5-yl)-2-(pyrazine-2-carboxamido)thiophene-3-carboxylic acid] | – |
| < 10 µM | Cc1nc(N2CCCCC2)ncc1-c1csc(NC(=O)c2ccnnc2)c1C(=O)O [4-(4-methyl-2-(piperidin-1-yl)pyrimidin-5-yl)-2-(pyridazine-4-carboxamido)thiophene-3-carboxylic acid] | – |
| < 10 µM | Cc1nc(N2CCCCC2)ncc1-c1csc(NC(=O)c2cncnc2)c1C(=O)O [4-(4-methyl-2-(piperidin-1-yl)pyrimidin-5-yl)-2-(pyrimidine-5-carboxamido)thiophene-3-carboxylic acid] | – |
| < 10 µM | O=C(CCc1cccc(F)c1)Nc1scc(-c2ccc(Cl)nc2)c1C(=O)O [4-(6-chloropyridin-3-yl)-2-(3-(3-fluorophenyl)propanamido)thiophene-3-carboxylic acid] | – |
| < 10 µM | O=C(Nc1scc(-c2ccc(Cl)nc2)c1C(=O)O)c1cccc(F)c1 [4-(6-chloropyridin-3-yl)-2-(3-fluorobenzamido)thiophene-3-carboxylic acid] | – |
| < 10 µM | O=C(Nc1scc(-c2cc3ccccc3s2)c1C(=O)O)c1cc2ccccc2o1 [4-(benzo[b]thiophen-2-yl)-2-(benzofuran-2-carboxamido)thiophene-3-carboxylic acid] | – |
| < 10 µM | O=C(Nc1scc(-c2ccc3nonc3c2)c1C(=O)O)c1cc2ccccc2o1 [4-(benzo[c][1,2,5]oxadiazol-5-yl)-2-(benzofuran-2-carboxamido)thiophene-3-carboxylic acid] | – |
| < 10 µM | O=C(Nc1scc(-c2nc3ccccc3s2)c1C(=O)O)c1cc2ccccc2o1 [4-(benzo[d]thiazol-2-yl)-2-(benzofuran-2-carboxamido)thiophene-3-carboxylic acid] | – |
| < 10 µM | O=C(Nc1scc(-c2ccc3scnc3c2)c1C(=O)O)c1cc2ccccc2o1 [4-(benzo[d]thiazol-5-yl)-2-(benzofuran-2-carboxamido)thiophene-3-carboxylic acid] | – |
| < 10 µM | O=C(Nc1scc(-c2cnccn2)c1C(=O)O)c1ccnnc1 [4-(pyrazin-2-yl)-2-(pyridazine-4-carboxamido)thiophene-3-carboxylic acid] | – |
| < 10 µM | O=C(Nc1scc(-c2cccs2)c1C(=O)O)c1ccccc1Cl [5′-(2-chlorobenzamido)-2,3′-bithiophene-4′-carboxylic acid] | – |
| < 10 µM | Cc1ccc(-c2csc(NC(=O)c3cccc(F)c3)c2C(=O)O)s1 [5′-(3-fluorobenzamido)-5-methyl-2,3′-bithiophene-4′-carboxylic acid] | – |

| IC50 (JR251 or RBL cells) | Structure (SMILES) | other results |
| --- | --- | --- |
| < 10 µM | O=C(Nc1scc(-c2cccs2)c1C(=O)O)c1ccc(F)cc1 [5′-(4-fluorobenzamido)-2,3′-bithiophene-4′-carboxylic acid] | – |
| < 10 µM | O=C(Nc1scc(-c2ccc(Br)s2)c1C(=O)O)c1cc2ccccc2o1 [5′-(benzofuran-2-carboxamido)-5-bromo-2,3′-bithiophene-4′-carboxylic acid] | – |
| < 10 µM | O=C(Nc1scc(-c2ccc(Cl)s2)c1C(=O)O)c1cc2ccccc2o1 [5′-(benzofuran-2-carboxamido)-5-chloro-2,3′-bithiophene-4′-carboxylic acid] | – |
| < 10 µM | Cc1ccc(-c2csc(NC(=O)c3cc4ccccc4o3)c2C(=O)O)s1 [5′-(benzofuran-2-carboxamido)-5-methyl-2,3′-bithiophene-4′-carboxylic acid] | – |
| < 10 µM | COc1ccc(/C=C/C(=O)Nc2scc(-c3cccs3)c2C(=O)O)cc1OC [(E)-5′-(3-(3,4-dimethoxyphenyl)acrylamido)-2,3′-bithiophene-4′-carboxylic acid] | – |
| – | Cc1ccc(-c2csc(NC(=O)c3cccc(F)c3)c2C(=O)O)s1 [A] | IC50 (RBL-2H3 cells): 1 to 10 µM |
| – | Cc1nnsc1C(=O)Nc1ccc(-n2nc(C(F)(F)F)cc2C(F)(F)F)cc1 [BTP-2] | inhibition of SOCE (Jurkat cells): inhibits; inhibition of proliferation (Jurkat cells): inhibits |
| – | O=C(Nc1scc(-c2ccc(Cl)s2)c1C(=O)O)c1cc2ccccc2o1 [B] | IC50 (RBL-2H3 cells): ≤ 0.5 µM |
| – | Cc1csc(-c2csc(NC(=O)c3cccc(F)c3)c2C(=O)O)n1 [C] | IC50 (RBL-2H3 cells): 1 to 10 µM |
| – | O=C(Nc1scc(-c2nc3ccccc3n2C(F)F)c1C(=O)O)c1cc2ccccc2o1 [Compound I] | IC50 (RBL-2H3 cells): 1 to 10 µM |
| – | COc1ccc(-c2csc(NC(=O)c3cccc(F)c3)c2C(=O)O)cn1 [D] | IC50 (RBL-2H3 cells): 1 to 10 µM |
| – | COc1ccc(-c2csc(NC(=O)c3cc4ccccc4o3)c2C(=O)O)cn1 [E] | IC50 (RBL-2H3 cells): 1 to 10 µM |
| – | O=C(Nc1scc(-c2cnc(C(F)(F)F)nc2)c1C(=O)O)c1cc2ccccc2o1 [F] | IC50 [2]: ≤ 0.5 µM; IC50 (RBL-2H3 cells): ≤ 0.5 µM |
| – | O=C(CCc1cccc(F)c1)Nc1scc(-c2ccc(Cl)nc2)c1C(=O)O [G] | IC50 [2]: 1 to 10 µM |
| – | O=C(Nc1scc(-c2c[nH]c3ccccc23)c1C(=O)O)c1cccc(F)c1 [H] | IC50 (RBL-2H3 cells): 1 to 10 µM |
| – | O=C(Nc1scc(-c2ccc3scnc3c2)c1C(=O)O)c1cc2ccccc2o1 [J] | IC50 [2]: ≤ 0.5 µM; IC50 (RBL-2H3 cells): ≤ 0.5 µM |
| – | Cc1ccc(-c2csc(NC(=O)c3cc4ccccc4o3)c2C(=O)O)c2ccccc12 [K] | IC50 [2]: ≤ 0.5 µM; IC50 (RBL-2H3 cells): 1 to 10 µM |
| – | Cc1ccc(-c2csc(NC(=O)c3cc4ccccc4o3)c2C(=O)O)c2cccnc12 [L] | IC50 [2]: ≤ 0.5 µM; IC50 (RBL-2H3 cells): ≤ 0.5 µM |
| < 10 µM | O=C(Nc1cc(-c2nc3ccccc3[nH]2)cs1)c1cccc(F)c1 [N-(4-(1H-benzo[d]imidazol-2-yl)thiophen-2-yl)-3-fluorobenzamide] | – |
